ChEMBL document CHEMBL2413036, “Isoswinholide B and swinholide K, potently cytotoxic dimeric macrolides from Theonella swinhoei” (Bioorg Med Chem, 2013)

Experiments:
HepG2 [1] = assay: Antiproliferative activity against human HepG2 cells assessed as cell growth inhibition at 100 nM after 48 hrs by MTT assay relative to swinholide-A; format: functional
HepG2 [2] = assay: Antiproliferative activity against human HepG2 cells after 48 hrs by MTT assay; format: functional, cell-based; conditions: HepG2, 48 h

Structure (SMILES) | Efficacy (HepG2 [1]) [%] | IC50 (HepG2 [2]) [nM]
CO[C@H]1C[C@H](CC[C@H](C)[C@H](O)[C@H](C)[C@H]2OC(=O)/C=C/C(C)=C/C[C@H](O)C[C@@H]3C=CC[C@@H](C[C@H](OC)[C@@H](C)[C@@H](O)C[C@@H](O)[C@H](C)[C@@H]([C@@H](C)[C@@H](O)[C@@H](C)CC[C@H]4C[C@H](OC)C[C@H](C)O4)OC(=O)/C=C/C(C)=C/C[C@H](O)C[C@@H]4C=CC[C@@H](C[C@H](O)[C@@H](C)[C@@H](O)C[C@@H](O)[C@@H]2C)O4)O3)O[C@@H](C)C1 | 45.35 | 30
CO[C@H]1C[C@H](CC[C@H](C)[C@H](O)[C@H](C)[C@@H](O)[C@@H](C)[C@H]2C[C@H](O)[C@H](C)[C@@H](OC)C[C@@H]3CC=C[C@@H](C[C@@H](O)C/C=C(C)/C=C/C(=O)O[C@H]([C@@H](C)[C@@H](O)[C@@H](C)CC[C@H]4C[C@H](OC)C[C@H](C)O4)[C@@H](C)[C@H](O)C[C@H](O)[C@H](C)[C@@H](OC)C[C@@H]4CC=C[C@@H](C[C@@H](O)C/C=C(C)/C=C/C(=O)O2)O4)O3)O[C@@H](C)C1 | 7.52 | 1500
C=C1/C=C/C(=O)O[C@H]([C@@H](C)[C@@H](O)[C@@H](C)CC[C@H]2C[C@H](OC)C[C@H](C)O2)[C@@H](C)[C@H](O)C[C@H](O)[C@H](C)[C@@H](OC)C[C@@H]2CC=C[C@@H](C[C@@H](O)C/C=C(C)/C=C/C(=O)O[C@H]([C@@H](C)[C@@H](O)[C@@H](C)CC[C@H]3C[C@H](OC)C[C@H](C)O3)[C@@H](C)[C@H](O)C[C@H](O)[C@H](C)[C@@H](OC)C[C@@H]3CC=C[C@@H](C[C@@H](O)C[C@H]1O)O3)O2 | 42.67 | 15
CO[C@H]1C[C@H](CC[C@H](C)[C@H](O)[C@H](C)[C@H]2OC(=O)/C=C/C(C)=C/C[C@H](O)C[C@@H]3CCC[C@H](C[C@H](OC)[C@@H](C)[C@@H](O)C[C@@H](O)[C@H](C)[C@H](O)[C@@H](C)[C@H]([C@@H](C)CC[C@H]4C[C@H](OC)C[C@H](C)O4)OC(=O)/C=C/C(C)=C/C[C@H](O)C[C@@H]4C=CC[C@H](C[C@H](OC)[C@@H](C)[C@@H](O)C[C@@H](O)[C@@H]2C)O4)O3)O[C@@H](C)C1 [ISOSWINHOLIDE A] | 16.28 | 35
CO[C@@H]1C[C@@H](O)C[C@@H](O)[C@H](C)[C@@H]([C@@H](C)[C@@H](O)[C@@H](C)CC[C@H]2C[C@H](OC)C[C@H](C)O2)OC(=O)/C=C/C(C)=C/C[C@H](O)C[C@@H]2C=CC[C@H](C[C@H](OC)[C@@H](C)[C@@H](O)C[C@@H](O)[C@H](C)[C@@H]([C@@H](C)[C@@H](O)[C@@H](C)CC[C@H]3C[C@H](OC)C[C@H](C)O3)OC(=O)/C=C/C(C)=C/C[C@H](O)C[C@@H]3CCC[C@H](C1)O3)O2 [SWINHOLIDE B] | 89.38 | 25
CO[C@H]1C[C@H](CC[C@H](C)[C@H](O)[C@H](C)[C@H]2OC(=O)/C=C/C(C)=C/C[C@H](O)C[C@@H]3C=CC[C@@H](C[C@H](OC)[C@@H](C)[C@@H](O)C[C@@H](O)[C@H](C)[C@@H]([C@@H](C)[C@@H](O)[C@@H](C)CC[C@H]4C[C@H](OC)C[C@H](C)O4)OC(=O)/C=C/C(C)=C/C[C@H](O)C[C@@H]4C=CC[C@@H](C[C@H](OC)[C@@H](C)[C@@H](O)C[C@@H](O)[C@@H]2C)O4)O3)O[C@@H](C)C1 [Swinholide A] |  | 20
